By EC50 is commonly meant the concentration that produces a half-maximal response. A low value points to an effect from little substance. One may read the Ki as the dissociation constant of the complex between target and ligand, obtained from inhibition or displacement. A low value points to higher affinity. In general, Kd refers to the free concentration of one partner at which half of the binding sites on the other are occupied at equilibrium, for simple one-to-one binding. A higher Kd goes with a looser complex.

In paper PMC7053488 (Cell, 2019) one finds EC50, Ki and Kd data, which are given here for six compounds.

The target of test [1] is T1, rat P2X7 receptor (rP2X7) (Rattus norvegicus, UniProt Q64663).
T1 sequence (Q64663 1-595): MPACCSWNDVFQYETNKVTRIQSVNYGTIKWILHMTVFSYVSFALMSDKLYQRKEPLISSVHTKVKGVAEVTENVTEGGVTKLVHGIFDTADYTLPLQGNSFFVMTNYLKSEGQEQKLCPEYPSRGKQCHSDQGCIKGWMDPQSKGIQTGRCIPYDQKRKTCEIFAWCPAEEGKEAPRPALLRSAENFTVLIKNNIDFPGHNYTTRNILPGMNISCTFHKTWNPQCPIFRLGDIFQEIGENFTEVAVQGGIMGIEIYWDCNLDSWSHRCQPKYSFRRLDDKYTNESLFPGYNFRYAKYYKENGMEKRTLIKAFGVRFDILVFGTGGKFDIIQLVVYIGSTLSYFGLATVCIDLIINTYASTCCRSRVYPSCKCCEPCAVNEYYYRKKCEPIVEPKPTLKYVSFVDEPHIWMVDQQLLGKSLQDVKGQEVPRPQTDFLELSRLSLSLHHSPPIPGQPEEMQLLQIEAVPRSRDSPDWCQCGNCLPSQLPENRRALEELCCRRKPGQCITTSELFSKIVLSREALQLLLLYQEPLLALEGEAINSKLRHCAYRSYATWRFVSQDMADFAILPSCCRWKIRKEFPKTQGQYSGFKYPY
In words: cryo-EM structure. In kind it is cell-based.

Test [2] deals with rat P2X7 receptor, rP2X7-ΔBallast (Rattus norvegicus, UniProt Q64663).
For test [3], the target named is T1, rat P2X7 receptor (rP2X7). In words: SPA competition with 3H-GDP. In kind it is binding.
In test [4] the target is T1, rat P2X7 receptor (rP2X7). In words: cryo-EM structure. In kind it is binding.

On to `Nc1ncnc2c1ncn2[C@@H]1O[C@H](COP(=O)(O)OP(=O)(O)OP(=O)(O)O)[C@@H](O)[C@H]1O` [ATP], for which the half-maximal effective concentration (EC50) is 42 ± 3 µM in test [1] and 52 ± 11 µM in test [2].
`Nc1ccn([C@@H]2O[C@H](COP(=O)(O)OP(=O)(O)OP(=O)(O)O)[C@@H](O)[C@H]2O)c(=O)n1` [CTP] had a Ki in test [3] of 130 ± 3 µM.
For `Nc1nc2c(ncn2[C@@H]2O[C@H](COP(=O)(O)OP(=O)(O)O)[C@@H](O)[C@H]2O)c(=O)[nH]1` [GDP], binding in test [4] was characterised by a dissociation constant (Kd) of 0.04 ± 0.01 µM.
`Nc1nc2c(ncn2[C@@H]2O[C@H](COP(=O)(O)OP(=O)(O)OP(O)(O)=S)[C@@H](O)[C@H]2O)c(=O)[nH]1` [GTP-γ-S] displayed a Ki in test [3] of 0.1 ± 0.01 µM.
Take `Nc1nc2c(ncn2[C@@H]2O[C@H](COP(=O)(O)OP(=O)(O)OP(=O)(O)O)[C@@H](O)[C@H]2O)c(=O)[nH]1` [GTP]: in test [3], the inhibition constant (Ki) amounted to 0.15 ± 0.015 µM.
For the compound `O=c1ccn([C@@H]2O[C@H](COP(=O)(O)OP(=O)(O)OP(=O)(O)O)[C@@H](O)[C@H]2O)c(=O)[nH]1` [UTP], the affinity in test [3] corresponds to a Ki of 60 ± 10 µM.
